Experiment [1] relates to bone marrow derived macrophages (BMDMs). Nature of the experiment: ELISA of cytokines released by BMDMs into culture media. It counts as cell-based, C57BL/6 mice. The settings on record: 24 hours of culture. Here is the method:
(§1) Murine bone marrow derived macrophages (BMDM) were isolated from 8-12 week-old C57BL/6 mice (Charles River) according to a protocol approved by the University of Toronto Animal Care Committee. The mice were euthanized, and the femur and tibias were removed and placed in complete RPMI 1640+L-glutamine media (Gibco, 10% heat inactivated Fetal Bovine Serum, FBS, 1% Pen/Strep). The bones were separated and sterilized in 70% ethanol for 10 minutes. The heads of the bones were cut off, and the marrow was flushed out with a 23 G needle containing fresh complete RPMI 1640 media. The remaining cell culture media and bone marrow was homogenized by gentle pipetting. The cells were spun down and resuspended in ACK Lysing Buffer (Gibco) for 1 min to lyse remaining red blood cells. The lysing buffer was diluted with PBS, and the cell suspension was re-spun, and counted. Cells were seeded at 3 million cells/well in non-adherent 6-well culture plates containing 2 mL of complete RPMI 1640 media with 20 ng/mL of Macrophage Colony Stimulating Factor (M-CSF, Miltenyi Biotec). Half (50%) of the media was changed on day 3, and 5. On day 7, adherent cells were used as macrophages for experiments. Macrophage purity, as identified by F4/80+, CD11b+ positive staining, under all culture stimulations is >90%, consistent with previous studies (FIG. 6B).
Adherent macrophages were detached by incubating with 0.25% trypsin-EDTA for 10 minutes. Cells were polarized in response to the following treatment conditions: blank-included cultivation on tissue culture plastics; soluble Q-Peptide (650 μM) applied to macrophages cultivated on tissue culture plastics; and macrophages cultivated on the following hydrogel films: no peptide collagen-chitosan (empty) film, scrambled Q-Peptide film, and Q-Peptide film. BMDMs were polarized with lipopolysaccharide (LPS; 100 ng/mL) for pro-inflammatory, M(LPS), and IL-4 ([…]) for anti-inflammatory, M(IL-4) positive polarization controls. Cells were seeded directly onto a non-adherent 6-well plate for the blank and soluble Q-Peptide conditions, and onto solvent cast films for the empty film, scrambled Q-Peptide film, and Q-Peptide film at a concentration of 100,000 cells/cm^2. After 24 hours of culture, cell culture media was collected for ELISA analysis by Eve Technologies (Calgary, AB), and the concentrations of INF-γ, IL-1β, IL-2, IL-4, IL-6, IL-10, IL-12 p′70, GM-CSF, MCP-1, TNF-α, TGF-β31, TGF-β2, and TGF-β3 were measured.
On the technique in general: In an ELISA, binding on a coated surface is turned into a signal by an enzyme label.

Experiment [2] has the same test system. Nature of the experiment: BMDM culture on hydrogel films: cell attachment, total cell count, viability (Zombie Violet). It counts as cell-based, C57BL/6 mice. The settings on record: after 24 hours of culture. Here is the method: as §1, with “Cells were seeded at 3 million cells/well in non-adherent 6-well culture plates containing 2 mL of complete RPMI 1640 media with 20 ng/mL of Macrophage Colony Stimulating Factor (M-CSF, Miltenyi Biotec). Half (50%) of the media was changed on day 3, and 5. On day 7, adherent cells were used as macrophages for experiments. Macrophage purity, as identified by F4/80+, CD11b+ positive staining, under all culture stimulations is >90%, consistent with previous studies (FIG. 6B).” left out
Adherent macrophages were detached by incubating with 0.25% trypsin-EDTA for 10 minutes. […] After 24 hours of culture, cell culture media was collected for ELISA analysis by Eve Technologies (Calgary, AB), and the concentrations of INF-γ, IL-1β, IL-2, IL-4, IL-6, IL-10, IL-12 p′70, GM-CSF, MCP-1, TNF-α, TGF-β31, TGF-β2, and TGF-β3 were measured. […]

For experiment [3], the system named is rat myocardial infarction model. To be noted: cited from earlier work.
Another experiment relates to wounds. The settings on record: wounds treated; cited from earlier work.
The mark [4] stands for this setting: compared to blank, soluble Q-Peptide and empty film (LPS: vs Q-Peptide film).

This is an account of results in patent US11766469B2, “Q-peptide hydrogel promotes immune modulation and macrophage differentiation” (Quthero, Inc., priority 2019, dated 2023).

For lipopolysaccharide [LPS], in experiment [1] (setting [4]), the “concentration of IL-6” value is on record as “an order of magnitude greater” and the “concentration of MCP-1” value is given as “an order of magnitude greater”. Further, in experiment [1] (relative to the other culture conditions (LPS: vs Q-Peptide film)), the “concentration of IL-10” value was “an order of magnitude greater”.

“QHREDGS (SEQ ID NO: 1) with biotin-Ahx N-terminal modification [soluble Q-Peptide]”: the “BMDM cytokine release / cytokine concentration (overall)” value in experiment [1] is “only had an effect on BMDM cytokine release when immobilized to a hydrogel”. In experiment [2], the “final cell count (cells in solution and attached)” value was “did not affect the final cell count”. Also, the “cell attachment (number of adhered cells/mm2)” value in experiment [2] (compared with blank culture conditions) is reported as “decrease in cell attachment”. Also, the “effectiveness in myocardial infarction model” value in experiment [3] was “effective”.

B1: recombinant human TGF-β3: recombinant human TGF-β3 used to treat wounds in a clinical trial (protein, UniProt P10600 301-412, looked up)
Transforming growth factor …: ALDTNYCFRNLEENCCVRPLYIDFRQDLGWKWVHEPKGYYANFCSGPCPYLRSADTTHSTVLGLYNTLNPEASASPCCVPQDLEPLTILYYVGRTPKVEQLSNMVVKSCKCS
B1: the “primary and secondary outcomes of a Phase III trial” value with wounds is “failed to reach primary and secondary outcomes”.
